Laboratory results published in patent US10947254B2, “Methods for treating ulcerative colitis using 3-((1R,3s,5S)-3-((7-((5-methyl-1H-pyrazol-3-yl)amino)-1,6-naphthyridin-5-yl)amino)-8-azabicyclo[3.2.1]octan-8-yl)propanenitrile” (priority 2015, dated 2021).

System: IL-4 induced STAT6 phosphorylation in THP-1 human monocytic cells
Details: THP-1 cells

SMILES | THP-1 IL4 pIC50
COC(=O)CN1[C@@H]2CC[C@H]1C[C@H](Nc1nc(Nc3cc(C)[nH]n3)cc3ncccc13)C2 [Example 1-1] | C (C represents a pEC50 value <6.7 (EC50>200 nM))
COC(=O)CCCN1[C@@H]2CC[C@H]1C[C@H](Nc1nc(Nc3cc(C)[nH]n3)cc3ncccc13)C2 [Example 1-3] | C (C represents a pEC50 value <6.7 (EC50>200 nM))
Cc1cc(Nc2cc3ncccc3c(N[C@@H]3C[C@H]4CC[C@@H](C3)N4CC(N)=O)n2)n[nH]1 [Example 1-6] | C (C represents a pEC50 value <6.7 (EC50>200 nM))
CNC(=O)CN1[C@@H]2CC[C@H]1C[C@H](Nc1nc(Nc3cc(C)[nH]n3)cc3ncccc13)C2 [Example 1-7] | C (C represents a pEC50 value <6.7 (EC50>200 nM))
Cc1cc(Nc2cc3ncccc3c(N[C@@H]3C[C@H]4CC[C@@H](C3)N4CC(=O)N(C)C)n2)n[nH]1 [Example 1-8] | C (C represents a pEC50 value <6.7 (EC50>200 nM))
Cc1cc(Nc2cc3ncccc3c(N[C@@H]3C[C@H]4CC[C@@H](C3)N4CCCF)n2)n[nH]1 [Example 1-9] | C (C represents a pEC50 value <6.7 (EC50>200 nM))
Cc1cc(Nc2cc3ncccc3c(N[C@@H]3C[C@H]4CC[C@@H](C3)N4CCC(F)(F)F)n2)n[nH]1 [Example 1-10] | C (C represents a pEC50 value <6.7 (EC50>200 nM))
Cc1cc(Nc2cc3ncccc3c(N[C@@H]3C[C@H]4CC[C@@H](C3)N4CC(=O)N[C@@H]3CCOC3=O)n2)n[nH]1 [Example 1-11] | C (C represents a pEC50 value <6.7 (EC50>200 nM))
Cc1cc(Nc2cc3ncccc3c(N[C@@H]3C[C@H]4CC[C@@H](C3)N4CC(=O)N[C@H]3CCOC3=O)n2)n[nH]1 [Example 1-12] | C (C represents a pEC50 value <6.7 (EC50>200 nM))
Cc1cc(Nc2cc3ncccc3c(N[C@@H]3C[C@H]4CC[C@@H](C3)N4CC(C)C)n2)n[nH]1 [Example 1-13] | A (A represents a pEC50 value ≥7.5 (EC50≤32 nM))
COCCCN1[C@@H]2CC[C@H]1C[C@H](Nc1nc(Nc3cc(C)[nH]n3)cc3ncccc13)C2 [Example 1-15] | C (C represents a pEC50 value <6.7 (EC50>200 nM))
Cc1cc(Nc2cc3ncccc3c(N[C@@H]3C[C@H]4CC[C@@H](C3)N4C(C)CC#N)n2)n[nH]1 (stereo partly drawn) [Example 1-21] | A (A represents a pEC50 value ≥7.5 (EC50≤32 nM))
Cc1cc(Nc2cc3ncccc3c(N[C@@H]3C[C@H]4CC[C@@H](C3)N4C[C@H]3CCC(=O)O3)n2)n[nH]1 [Example 1-29] | C (C represents a pEC50 value <6.7 (EC50>200 nM))
COC(=O)CN1[C@@H]2CCC[C@H]1C[C@H](Nc1nc(Nc3cc(C)[nH]n3)cc3ncccc13)C2 [Example 1-32] | C (C represents a pEC50 value <6.7 (EC50>200 nM))
COC(=O)CCN1[C@@H]2CCC[C@H]1C[C@H](Nc1nc(Nc3cc(C)[nH]n3)cc3ncccc13)C2 [Example 1-33] | C (C represents a pEC50 value <6.7 (EC50>200 nM))
COC(=O)CCCN1[C@@H]2CCC[C@H]1C[C@H](Nc1nc(Nc3cc(C)[nH]n3)cc3ncccc13)C2 [Example 1-34] | C (C represents a pEC50 value <6.7 (EC50>200 nM))
Cc1cc(Nc2cc3ncccc3c(N[C@@H]3C[C@H]4CCC[C@@H](C3)N4CC(=O)OC(C)C)n2)n[nH]1 [Example 1-35] | A (A represents a pEC50 value ≥7.5 (EC50≤32 nM))
Cc1cc(Nc2cc3ncccc3c(N[C@@H]3C[C@H]4CCC[C@@H](C3)N4CC(=O)N[C@@H]3CCOC3=O)n2)n[nH]1 [Example 1-41] | C (C represents a pEC50 value <6.7 (EC50>200 nM))
Cc1cc(Nc2cc3ncccc3c(N[C@@H]3C[C@H]4CCC[C@@H](C3)N4CC(=O)N[C@H]3CCOC3=O)n2)n[nH]1 [Example 1-42] | C (C represents a pEC50 value <6.7 (EC50>200 nM))
Cc1cc(Nc2cc3ncccc3c(N[C@@H]3C[C@H]4CCC[C@@H](C3)N4Cc3cccc(O)c3)n2)n[nH]1 [Example 1-49] | A (A represents a pEC50 value ≥7.5 (EC50≤32 nM))
CCOCC(=O)N1[C@@H]2CC[C@H]1C[C@H](Nc1nc(Nc3cc(C)[nH]n3)cc3ncccc13)C2 [Example 2-4] | C (C represents a pEC50 value <6.7 (EC50>200 nM))
Cc1cc(Nc2cc3ncccc3c(N[C@@H]3C[C@H]4CC[C@@H](C3)N4C(=O)CN(C)C)n2)n[nH]1 [Example 2-5] | C (C represents a pEC50 value <6.7 (EC50>200 nM))
CCC(=O)N1[C@@H]2CCC[C@H]1C[C@H](Nc1nc(Nc3cc(C)[nH]n3)cc3ncccc13)C2 [Example 2-15] | A (A represents a pEC50 value ≥7.5 (EC50≤32 nM))
CCC(C)C(=O)N1C2CCCC1CC(Nc1nc(Nc3cc(C)[nH]n3)cc3ncccc13)C2 (stereo not drawn) [Example 2-18] | A (A represents a pEC50 value ≥7.5 (EC50≤32 nM))
Cc1cc(Nc2cc3ncccc3c(N[C@@H]3C[C@H]4CC[C@@H](C3)N4C(=O)OCC(C)C)n2)n[nH]1 [Example 3-3] | A (A represents a pEC50 value ≥7.5 (EC50≤32 nM))
C=CCOC(=O)N1[C@@H]2CC[C@H]1C[C@H](Nc1nc(Nc3cc(C)[nH]n3)cc3ncccc13)C2 [Example 3-4] | A (A represents a pEC50 value ≥7.5 (EC50≤32 nM))

SMILES | THP-1 IL4 pIC50
CCOC(=O)N1[C@@H]2CCC[C@H]1C[C@H](Nc1nc(Nc3cc(C)[nH]n3)cc3ncccc13)C2 [Example 3-6] | A (A represents a pEC50 value ≥7.5 (EC50≤32 nM))
C=CCOC(=O)N1[C@@H]2CCC[C@H]1C[C@H](Nc1nc(Nc3cc(C)[nH]n3)cc3ncccc13)C2 [Example 3-8] | A (A represents a pEC50 value ≥7.5 (EC50≤32 nM))
COCCOC(=O)N1[C@@H]2CCC[C@H]1C[C@H](Nc1nc(Nc3cc(C)[nH]n3)cc3ncccc13)C2 [Example 3-9] | A (A represents a pEC50 value ≥7.5 (EC50≤32 nM))
Cc1cc(Nc2cc3ncccc3c(N[C@@H]3C[C@H]4CCC[C@@H](C3)N4S(C)(=O)=O)n2)n[nH]1 [Example 4-16] | A (A represents a pEC50 value ≥7.5 (EC50≤32 nM))
Cc1cc(Nc2cc3ncccc3c(N[C@@H]3C[C@H]4CCC[C@@H](C3)N4S(=O)(=O)CC(C)C)n2)n[nH]1 [Example 4-17] | A (A represents a pEC50 value ≥7.5 (EC50≤32 nM))
Cc1cc(Nc2cc3ncccc3c(N[C@@H]3C[C@H]4CCC[C@@H](C3)N4S(=O)(=O)C3CNC3)n2)n[nH]1 [Example 4-21] | C (C represents a pEC50 value <6.7 (EC50>200 nM))
C=CCS(=O)(=O)N1[C@@H]2CCC[C@H]1C[C@H](Nc1nc(Nc3cc(C)[nH]n3)cc3ncccc13)C2 [Example 4-22] | A (A represents a pEC50 value ≥7.5 (EC50≤32 nM))
Cc1ccc(S(=O)(=O)N2[C@@H]3CCC[C@H]2C[C@H](Nc2nc(Nc4cc(C)[nH]n4)cc4ncccc24)C3)cn1 [Example 4-25] | A (A represents a pEC50 value ≥7.5 (EC50≤32 nM))
CCS(=O)(=O)N1[C@@H]2CCC[C@H]1C[C@H](Nc1nc(Nc3cc(C)[nH]n3)cc3nc(CN4CCOCC4)ccc13)C2 [Example 5-23] | A (A represents a pEC50 value ≥7.5 (EC50≤32 nM))
Cc1cc(Nc2cc3nc(CN4CCOCC4)ccc3c(N[C@@H]3C[C@H]4CCC[C@@H](C3)N4CCC#N)n2)n[nH]1 [Example 5-26] | A (A represents a pEC50 value ≥7.5 (EC50≤32 nM))
Cc1cc(Nc2cc3nc(CN4CCOCC4)ccc3c(N[C@H]3C[C@H]4CCC[C@@H](C3)N4CC(F)(F)F)n2)n[nH]1 [Example 5-29] | B (B represents a pEC50 value between 6.7 and 7.5 (EC50 between 200 nM and 32 nM))
Cc1cc(Nc2cc3nc(CS(C)(=O)=O)ccc3c(N[C@@H]3C[C@H]4CC[C@@H](C3)N4CCF)n2)n[nH]1 [Example 5-41] | C (C represents a pEC50 value <6.7 (EC50>200 nM))
Cc1cc(Nc2cc3nc(CS(C)(=O)=O)ccc3c(N[C@@H]3C[C@H]4CC[C@@H](C3)N4CCCF)n2)n[nH]1 [Example 5-42] | C (C represents a pEC50 value <6.7 (EC50>200 nM))
Cc1cnc2cc(Nc3cc(C)[nH]n3)nc(N[C@@H]3C[C@H]4CC[C@@H](C3)N4Cc3ccncc3)c2c1 [Example 6-2] | A (A represents a pEC50 value ≥7.5 (EC50≤32 nM))
COc1cnc2cc(Nc3cc(C)[nH]n3)nc(N[C@@H]3C[C@H]4CC[C@@H](C3)N4CCC#N)c2c1 [Example 6-11] | A (A represents a pEC50 value ≥7.5 (EC50≤32 nM))
COc1cnc2cc(Nc3cc(C)[nH]n3)nc(N[C@@H]3C[C@H]4CCC[C@@H](C3)N4C(=O)CN(C)C)c2c1 [Example 6-30] | C (C represents a pEC50 value <6.7 (EC50>200 nM))
COC(=O)c1cnc2cc(Nc3cc(C)[nH]n3)nc(N[C@@H]3C[C@H]4CC[C@@H](C3)N4CCC#N)c2c1 [Example 6-32] | A (A represents a pEC50 value ≥7.5 (EC50≤32 nM))
COC(=O)c1cnc2cc(Nc3cc(C)[nH]n3)nc(N[C@@H]3C[C@H]4CC[C@@H](C3)N4C(=O)CN(C)C)c2c1 [Example 6-39] | C (C represents a pEC50 value <6.7 (EC50>200 nM))
C=CCOC(=O)N1[C@@H]2CC[C@H]1C[C@H](Nc1nc(Nc3cc(C)[nH]n3)cc3ncc(C(=O)OC)cc13)C2 [Example 6-40] | A (A represents a pEC50 value ≥7.5 (EC50≤32 nM))
COC(=O)c1cnc2cc(Nc3cc(C)[nH]n3)nc(N[C@@H]3C[C@H]4CC[C@@H](C3)N4CC(=O)OC(C)C)c2c1 [Example 6-41] | A (A represents a pEC50 value ≥7.5 (EC50≤32 nM))
CNC(=O)CN1[C@@H]2CC[C@H]1C[C@H](Nc1nc(Nc3cc(C)[nH]n3)cc3ncc(C(=O)OC)cc13)C2 [Example 6-42] | C (C represents a pEC50 value <6.7 (EC50>200 nM))
COC(=O)c1cnc2cc(Nc3cc(C)[nH]n3)nc(N[C@@H]3C[C@H]4CC[C@@H](C3)N4C[C@H]3CCC(=O)O3)c2c1 [Example 6-46] | C (C represents a pEC50 value <6.7 (EC50>200 nM))
Cc1cc(Nc2cc3ncc(S(C)(=O)=O)cc3c(N[C@@H]3C[C@H]4CC[C@@H](C3)N4CCC#N)n2)n[nH]1 [Example 6-50] | C (C represents a pEC50 value <6.7 (EC50>200 nM))
Cc1cc(Nc2cc3ncc(S(C)(=O)=O)cc3c(N[C@@H]3C[C@H]4CC[C@@H](C3)N4C(=O)CC#N)n2)n[nH]1 [Example 6-51] | C (C represents a pEC50 value <6.7 (EC50>200 nM))
Cc1cc(Nc2cc3ncc(S(C)(=O)=O)cc3c(N[C@@H]3C[C@H]4CC[C@@H](C3)N4CCF)n2)n[nH]1 [Example 6-54] | C (C represents a pEC50 value <6.7 (EC50>200 nM))
